Laboratory results reported in US20260325533A1, “CDK INHIBITOR COMPOUNDS” (ALEKSIA THERAPEUTICS, INC., priority 2023, published 2026).
Where two headings read alike, the source gives them in different places. One block for each compound: values may come before it.

Columns and labels:
Format in all cases: biochemical
CDK4/CCND3 = CDK4/CCND3 (Homo sapiens, UniProt P11802); assay: CDK4 homogeneous time-resolved fluorescence (HTRF) kinase assay; conditions: CDK4/CCND
In short: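 Steps: compound plus 1.5 nM CDK4/CCND3, 20 min, 23 °C; add 1 mM ATP and 50 nM ULight-4E-BP1 (Thr37/46) peptide, 60 min; stop with 10 mM EDTA; add 2 nM Eu anti-phospho antibody, 60 min; read 665 nm. IC50 from 11-point half-log series starting 10 μM.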

CDK6/CCND1 = CDK6/CCND1 (Homo sapiens, UniProt Q00534); assay: CDK6 homogeneous time-resolved fluorescence (HTRF) kinase assay; conditions: CDK6/CCND
Sequence of CDK6/CCND1 (Q00534 whole entry): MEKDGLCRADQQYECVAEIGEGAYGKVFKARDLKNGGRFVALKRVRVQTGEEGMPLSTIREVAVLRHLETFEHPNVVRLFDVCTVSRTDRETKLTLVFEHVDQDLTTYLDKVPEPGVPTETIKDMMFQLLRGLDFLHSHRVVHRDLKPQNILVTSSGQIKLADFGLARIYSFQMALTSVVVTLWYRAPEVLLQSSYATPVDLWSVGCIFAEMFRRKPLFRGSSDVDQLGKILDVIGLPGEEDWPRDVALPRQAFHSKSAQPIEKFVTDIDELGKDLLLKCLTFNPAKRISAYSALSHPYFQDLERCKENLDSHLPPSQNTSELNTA
Sequence of CDK6/CCND1 (P24385 whole entry partner): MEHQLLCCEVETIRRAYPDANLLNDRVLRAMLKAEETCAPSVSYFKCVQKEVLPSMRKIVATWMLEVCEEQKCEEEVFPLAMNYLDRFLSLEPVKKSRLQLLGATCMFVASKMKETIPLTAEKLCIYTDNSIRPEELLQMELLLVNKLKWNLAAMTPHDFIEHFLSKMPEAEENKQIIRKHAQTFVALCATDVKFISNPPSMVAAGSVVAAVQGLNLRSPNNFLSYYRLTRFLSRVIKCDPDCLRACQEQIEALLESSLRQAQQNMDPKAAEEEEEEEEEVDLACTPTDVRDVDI
In short: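 Enzyme pre-incubated 20 min at 23 °C with compound, then reacted 60 min at 23 °C with 1 mM ATP and 50 nM ULight-4E-BP1 (Thr37/46) peptide; 1 nM enzyme, 1% DMSO. EDTA-stopped, Eu-anti-phospho antibody TR-FRET read (665 nm or 665/615 ratio); 11-point half-log titration from 10 μM gave IC50.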

CDK1/CCNB1 = CDK1/CCNB1 (Homo sapiens, UniProt P06493); assay: CDK1 homogeneous time-resolved fluorescence (HTRF) kinase assay; conditions: CDK1/CCNB
Sequence of CDK1/CCNB1 (P06493 whole entry): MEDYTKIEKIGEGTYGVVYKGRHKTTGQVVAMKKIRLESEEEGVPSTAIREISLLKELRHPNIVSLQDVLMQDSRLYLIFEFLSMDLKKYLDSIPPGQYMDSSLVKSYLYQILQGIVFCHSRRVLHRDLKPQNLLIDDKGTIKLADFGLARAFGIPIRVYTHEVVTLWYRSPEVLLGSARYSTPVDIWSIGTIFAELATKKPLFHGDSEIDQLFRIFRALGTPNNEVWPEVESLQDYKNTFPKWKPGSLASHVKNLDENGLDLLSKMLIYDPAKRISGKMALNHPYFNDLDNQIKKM
Sequence of CDK1/CCNB1 (P14635 whole entry partner): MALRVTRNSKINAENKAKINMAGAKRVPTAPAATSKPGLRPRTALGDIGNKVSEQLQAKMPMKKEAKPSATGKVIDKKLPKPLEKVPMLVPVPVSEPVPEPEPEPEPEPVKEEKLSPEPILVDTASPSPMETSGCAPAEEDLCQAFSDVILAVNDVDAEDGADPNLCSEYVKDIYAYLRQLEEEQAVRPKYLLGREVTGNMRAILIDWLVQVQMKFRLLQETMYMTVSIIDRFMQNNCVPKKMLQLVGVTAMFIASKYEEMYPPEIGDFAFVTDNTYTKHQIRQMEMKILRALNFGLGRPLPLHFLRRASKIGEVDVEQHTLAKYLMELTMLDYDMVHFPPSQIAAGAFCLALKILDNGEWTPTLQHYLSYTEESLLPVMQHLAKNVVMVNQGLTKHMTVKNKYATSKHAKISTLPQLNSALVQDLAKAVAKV
In short: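 HTRF assay with 0.5 nM CDK1/CCNB1, 1 mM ATP, 50 nM ULight-eIF4E-BP1 (Thr37/46) peptide; compound preincubated 20 min, reaction 60 min at 23 °C, EDTA stop, Eu-anti-phospho antibody detection. 11-point half-log titration from 10 μM, 1% DMSO; IC50 from 665 nm or 665/615 signal.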

CDK2/CCNE1 = CDK2/CCNE1 (Homo sapiens, UniProt P24941); assay: CDK2 homogeneous time-resolved fluorescence (HTRF) kinase assay; conditions: CDK2/CCNE
In short: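 Compounds were titrated 11-point, half-log from typically 10 μM against 3 nM CDK2/cyclin E1 at 1 mM ATP, with a 20 min enzyme preincubation. Phosphorylation of 50 nM ULight-4E-BP1 peptide over 60 min at 23 °C was detected by europium anti-phospho antibody TR-FRET.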

[1] = 25-250 nM, read-out: CDK4/CCND IC50, 25-250 nM
[2] = 25-250 nM, 1 mM ATP, read-out: CDK6/CCND IC50, 25-250 nM
[3] = 25-250 nM, read-out: CDK1/CCNB IC50, 25-250 nM
[4] = <25 nM, read-out: CDK2/CCNE IC50, <25 nM
[5] = 25-250 nM marked x, read-out: CDK1/CCNB IC50 25-250 nM
[6] = 25-250 nM marked x, read-out: CDK2/CCNE IC50 25-250 nM
[7] = >250 nM, read-out: CDK4/CCND IC50, >250 nM
[8] = >250 nM, 1 mM ATP, read-out: CDK6/CCND IC50, >250 nM
[9] = >250 nM, read-out: CDK1/CCNB IC50 >250 nM
[10] = x = IC50 25-250 nM, read-out: CDK6/CCND IC50 (25-250 nM)
[11] = x = IC50 <25 nM, read-out: CDK2/CCNE IC50 (<25 nM)
[12] = x = IC50 >250 nM, read-out: CDK4/CCND IC50 (>250 nM column)
[13] = x = IC50 >250 nM, read-out: CDK6/CCND IC50 (>250 nM column)
[14] = x = IC50 >250 nM, read-out: CDK1/CCNB IC50 (>250 nM column)
[15] = x = IC50 25-250 nM, read-out: CDK2/CCNE IC50 (25-250 nM)
[16] = >250 nM marked x, read-out: CDK4/CCND IC50 >250 nM
[17] = >250 nM marked x, read-out: CDK6/CCND IC50 >250 nM

Sequence of CDK4/CCND3 (P11802 whole entry): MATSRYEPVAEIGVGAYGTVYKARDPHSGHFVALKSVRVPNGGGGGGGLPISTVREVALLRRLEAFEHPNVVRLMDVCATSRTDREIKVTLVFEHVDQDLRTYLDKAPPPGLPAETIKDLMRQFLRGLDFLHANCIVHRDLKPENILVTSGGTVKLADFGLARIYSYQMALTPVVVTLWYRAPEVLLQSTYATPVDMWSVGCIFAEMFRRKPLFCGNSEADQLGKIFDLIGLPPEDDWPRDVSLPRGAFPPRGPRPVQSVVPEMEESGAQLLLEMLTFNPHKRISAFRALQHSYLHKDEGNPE
Sequence of CDK4/CCND3 (P30281 whole entry partner): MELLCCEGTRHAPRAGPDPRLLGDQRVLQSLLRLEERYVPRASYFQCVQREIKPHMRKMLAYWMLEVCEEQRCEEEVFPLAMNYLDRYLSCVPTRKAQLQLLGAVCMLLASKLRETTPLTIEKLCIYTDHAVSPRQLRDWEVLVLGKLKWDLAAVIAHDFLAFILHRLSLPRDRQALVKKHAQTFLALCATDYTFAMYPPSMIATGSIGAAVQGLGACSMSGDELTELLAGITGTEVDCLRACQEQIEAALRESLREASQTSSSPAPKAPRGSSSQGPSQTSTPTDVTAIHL

Structure (SMILES): Cc1c(-c2nccc3cnc(Nc4ccc(NS(=O)(=O)c5ccccn5)cc4)cc23)ccc2c1cnn2CC(C)(C)O [Ex 768, N-(4-((5-(1-(2-hydroxy-2-methylpropyl)-4-methyl-1H-indazol-5-yl)-2,6-naphthyridin-3-yl)amino)phenyl)pyridine-2-sulfonamide]
- IC50 (CDK4/CCND3; [1]): 25 to 250 nM
- IC50 (CDK6/CCND1; [2]): 25 to 250 nM
- IC50 (CDK1/CCNB1; [3]): 25 to 250 nM
- IC50 (CDK2/CCNE1; [4]): < 25 nM

Structure (SMILES): CN(CCO)C(=O)c1nccc2cnc(NC3CCN(S(C)(=O)=O)CC3)cc12 [Ex 96, N-(2-hydroxyethyl)-N-methyl-7-((1-(methylsulfonyl)piperidin-4-yl)amino)-2,6-naphthyridine-1-carboxamide]
- IC50 (CDK4/CCND3; 25-250 nM marked x, read-out: CDK4/CCND IC50 25-250 nM): 25 to 250 nM
- IC50 (CDK6/CCND1; 25-250 nM marked x, read-out: CDK6/CCND IC50 25-250 nM): 25 to 250 nM
- IC50 (CDK1/CCNB1; [5]): 25 to 250 nM
- IC50 (CDK2/CCNE1; [6]): 25 to 250 nM

Structure (SMILES): CS(=O)(=O)c1ccc(Nc2cc3c(C#Cc4cc(Cl)ncc4N)nccc3cn2)cc1 [Ex 569, 5-((5-amino-2-chloropyridin-4-yl)ethynyl)-N-(4-(methylsulfonyl)phenyl)-2,6-naphthyridin-3-amine]
- IC50 (CDK4/CCND3; [12]): > 250 nM
- IC50 (CDK6/CCND1; [13]): > 250 nM
- IC50 (CDK1/CCNB1; [14]): > 250 nM
- IC50 (CDK2/CCNE1; [15]): 25 to 250 nM

Structure (SMILES): CCC1(CC)C(=O)Nc2cc(C#Cc3nccc4cnc(Nc5ccc(S(C)(=N)=O)cc5C)cc34)ccc21 (single isomer, unassigned) [Ex 336, 3,3-diethyl-6-((7-((2-methyl-4-(S-methylsulfonimidoyl)phenyl)amino)-2,6-naphthyridin-1-yl)ethynyl)indolin-2-one]
- IC50 (CDK4/CCND3; [16]): > 250 nM
- IC50 (CDK6/CCND1; [17]): > 250 nM
- IC50 (CDK1/CCNB1; [5]): 25 to 250 nM
- IC50 (CDK2/CCNE1; <25 nM, read-out: CDK2/CCNE IC50 <25 nM): < 25 nM

Structure (SMILES): CC1(C)C(=O)Nc2cc(C#Cc3nccc4cnc(Nc5ccc(S(=O)(=O)NC6CCNCC6)cc5)cc34)ccc21 [Ex 442, 4-((5-((3,3-dimethyl-2-oxoindolin-6-yl)ethynyl)-2,6-naphthyridin-3-yl)amino)-N-(piperidin-4-yl)benzenesulfonamide]
- IC50 (CDK4/CCND3; x = IC50 <25 nM, read-out: CDK4/CCND IC50 (<25 nM)): < 25 nM
- IC50 (CDK6/CCND1; [10]): 25 to 250 nM
- IC50 (CDK1/CCNB1; x = IC50 <25 nM, read-out: CDK1/CCNB IC50 (<25 nM)): < 25 nM
- IC50 (CDK2/CCNE1; [11]): < 25 nM

Structure (SMILES): C=CS(=O)(=O)c1ccc(Nc2cc3c(-c4ccc5ocnc5c4)nccc3cn2)cc1 [Ex 145, 5-(benzo[d]oxazol-5-yl)-N-(4-(vinylsulfonyl)phenyl)-2,6-naphthyridin-3-amine]
- IC50 (CDK4/CCND3; [16]): > 250 nM
- IC50 (CDK6/CCND1; [17]): > 250 nM
- IC50 (CDK1/CCNB1; >250 nM marked x, read-out: CDK1/CCNB IC50 >250 nM): > 250 nM
- IC50 (CDK2/CCNE1; [6]): 25 to 250 nM

Structure (SMILES): Cc1c(-c2nccc3cnc(Nc4ccc(S(=O)(=O)NC5CCNC5)cc4)cc23)ccc2c1cnn2CC(C)(C)O (racemic) [Ex 791, 4-((5-(1-(2-hydroxy-2-methylpropyl)-4-methyl-1H-indazol-5-yl)-2,6-naphthyridin-3-yl)amino)-N-(pyrrolidin-3-yl)benzenesulfonamide]
- IC50 (CDK4/CCND3; <25 nM, read-out: CDK4/CCND IC50, column <25 nM): < 25 nM
- IC50 (CDK6/CCND1; [2]): 25 to 250 nM
- IC50 (CDK1/CCNB1; [3]): 25 to 250 nM
- IC50 (CDK2/CCNE1; [4]): < 25 nM

Structure (SMILES): CS(=O)(=O)c1ccc(Nc2cc3c(C#Cc4ccc(C#N)c(F)c4)nccc3cn2)cc1 [Ex 650, 2-fluoro-4-((7-((4-(methylsulfonyl)phenyl)amino)-2,6-naphthyridin-1-yl)ethynyl)benzonitrile]
- IC50 (CDK4/CCND3; [12]): > 250 nM
- IC50 (CDK6/CCND1; [13]): > 250 nM
- IC50 (CDK1/CCNB1; [14]): > 250 nM
- IC50 (CDK2/CCNE1; [15]): 25 to 250 nM

The remaining lines, values ahead:

- IC50 (CDK4/CCND3; [7]): > 250 nM
- IC50 (CDK6/CCND1; [8]): > 250 nM
- IC50 (CDK1/CCNB1; [9]): > 250 nM
- IC50 (CDK2/CCNE1; [4]): < 25 nM
Structure (SMILES): Cc1c(-c2nccc3cnc(Nc4ccc(C(=O)Nc5ccccc5)cc4)cc23)ccc2c1cnn2CC(C)(C)O [Ex 937, 4-((5-(1-(2-hydroxy-2-methylpropyl)-4-methyl-1H-indazol-5-yl)-2,6-naphthyridin-3-yl)amino)-N-phenylbenzamide]

- IC50 (CDK4/CCND3; [1]): 25 to 250 nM
- IC50 (CDK6/CCND1; [2]): 25 to 250 nM
- IC50 (CDK1/CCNB1; [9]): > 250 nM
- IC50 (CDK2/CCNE1; [4]): < 25 nM
Structure (SMILES): Cc1c(-c2nccc3cnc(Nc4ccc(S(C)(=O)=O)cn4)cc23)ccc2c1cnn2CC(C)(C)O [Ex 848, 2-methyl-1-(4-methyl-5-(7-((5-(methylsulfonyl)pyridin-2-yl)amino)-2,6-naphthyridin-1-yl)-1H-indazol-1-yl)propan-2-ol]

- IC50 (CDK4/CCND3; x = IC50 25-250 nM, read-out: CDK4/CCND IC50 (25-250 nM)): 25 to 250 nM
- IC50 (CDK6/CCND1; [10]): 25 to 250 nM
- IC50 (CDK1/CCNB1; x = IC50 25-250 nM, read-out: CDK1/CCNB IC50 (25-250 nM)): 25 to 250 nM
- IC50 (CDK2/CCNE1; [11]): < 25 nM
Structure (SMILES): CC1(O)C(=O)Nc2cc(C#Cc3nccc4cnc(Nc5ccc(S(C)(=O)=O)cc5)cc34)ccc21 (racemic) [Example 362, 3-hydroxy-3-methyl-6-((7-((4-(methylsulfonyl)phenyl)amino)-2,6-naphthyridin-1-yl)ethynyl)indolin-2-one]

- IC50 (CDK4/CCND3; [12]): > 250 nM
- IC50 (CDK6/CCND1; [13]): > 250 nM
- IC50 (CDK1/CCNB1; [14]): > 250 nM
- IC50 (CDK2/CCNE1; [15]): 25 to 250 nM
Structure (SMILES): COC(=O)CCc1ccc(C#Cc2nccc3cnc(Nc4ccc(S(C)(=O)=O)cc4)cc23)cc1 [Example 493, methyl 3-(4-((7-((4-(methylsulfonyl)phenyl)amino)-2,6-naphthyridin-1-yl)ethynyl)phenyl)propanoate]

- IC50 (CDK4/CCND3; [7]): > 250 nM
- IC50 (CDK6/CCND1; [2]): 25 to 250 nM
- IC50 (CDK1/CCNB1; [9]): > 250 nM
- IC50 (CDK2/CCNE1; [4]): < 25 nM
Structure (SMILES): COc1ccnc(NS(=O)(=O)c2ccc(Nc3cc4c(-c5ccc6c(cnn6CC(C)(C)O)c5C)nccc4cn3)cc2)c1 [Ex 813, 4-((5-(1-(2-hydroxy-2-methylpropyl)-4-methyl-1H-indazol-5-yl)-2,6-naphthyridin-3-yl)amino)-N-(4-methoxypyridin-2-yl)benzenesulfonamide]

- IC50 (CDK4/CCND3; [7]): > 250 nM
- IC50 (CDK6/CCND1; [8]): > 250 nM
- IC50 (CDK1/CCNB1; [9]): > 250 nM
- IC50 (CDK2/CCNE1; [4]): < 25 nM
Structure (SMILES): Cc1c(-c2nccc3cnc(Nc4ccc(S(=O)(=O)Nc5nccc(C(F)(F)F)n5)cc4)cc23)ccc2c1cnn2CC(C)(C)O [Ex 907, 4-((5-(1-(2-hydroxy-2-methylpropyl)-4-methyl-1H-indazol-5-yl)-2,6-naphthyridin-3-yl)amino)-N-(4-(trifluoromethyl)pyrimidin-2-yl)benzenesulfonamide]

- IC50 (CDK4/CCND3; [1]): 25 to 250 nM
- IC50 (CDK6/CCND1; [2]): 25 to 250 nM
- IC50 (CDK1/CCNB1; [9]): > 250 nM
- IC50 (CDK2/CCNE1; [4]): < 25 nM
Structure (SMILES): Cc1c(-c2nccc3cnc(Nc4ccc(S(=O)(=O)Nc5ccccn5)cc4)cc23)ccc2c1cnn2CC(C)(C)O [Ex 924, 4-((5-(1-(2-hydroxy-2-methylpropyl)-4-methyl-1H-indazol-5-yl)-2,6-naphthyridin-3-yl)amino)-N-(pyridin-2-yl)benzenesulfonamide]

- IC50 (CDK4/CCND3; [7]): > 250 nM
- IC50 (CDK6/CCND1; [8]): > 250 nM
- IC50 (CDK1/CCNB1; [9]): > 250 nM
- IC50 (CDK2/CCNE1; 25-250 nM, read-out: CDK2/CCNE IC50, 25-250 nM): 25 to 250 nM
Structure (SMILES): N#Cc1ccc(C#Cc2nccc3cnc(Nc4cnc(O)c(N5CCN(CCO)CC5)c4)cc23)cc1 [Ex 920, 4-((7-((6-hydroxy-5-(4-(2-hydroxyethyl)piperazin-1-yl)pyridin-3-yl)amino)-2,6-naphthyridin-1-yl)ethynyl)benzonitrile]

- IC50 (CDK4/CCND3; [7]): > 250 nM
- IC50 (CDK6/CCND1; [8]): > 250 nM
- IC50 (CDK1/CCNB1; [9]): > 250 nM
- IC50 (CDK2/CCNE1; [4]): < 25 nM
Structure (SMILES): Cc1c(-c2nccc3cnc(NC4CCN(C(=O)c5ccc(Cl)cc5)C4)cc23)ccc2c1cnn2CC(C)(C)O (racemic) [Ex 903, (4-chlorophenyl)(3-((5-(1-(2-hydroxy-2-methylpropyl)-4-methyl-1H-indazol-5-yl)-2,6-naphthyridin-3-yl)amino)pyrrolidin-1-yl)methanone]
